Results published in article PMC9775191, “A Subset Screen of the Compounds Australia Scaffold Library Identifies 7-Acylaminodibenzoxazepinones as Potent and Selective Hits for Anti-Giardia Drug Discovery” (Biomedicines, 2022).

Test system: G. duodenalis BRIS/91/HEPU/1279
Experiment: Primary Giardia screen at 10 µM (live-cell imaging, automated counting)
Type: cell-based, Giardia duodenalis
Experimental: Each compound was assessed in singlicate, at a final concentration of 10 μM (0.4 μL of a 5 mM stock; diluted to a final volume of 200 μL in culture medium; 0.2% DMSO). […] Plates were incubated in sealed chambers filled with 3% O2, 5% CO2 in N2 and growth was assessed at 24 and 48 h using live cell imaging and automated counting as previously described. Growth inhibition was calculated by subtracting media only background counts and determining percentage growth relative to vehicle (0.2% DMSO) controls. The reliability of these assays was assessed by calculating Z’ factors for each plate as previously described.

Row | Compound | % Inhibition n=1 48h (48 h, first singlicate assay) [%] | other results
1 | Cc1cccc(-c2noc(C3CCCN3S(=O)(=O)c3ccc(C(C)(C)C)cc3)n2)c1 (stereo not shown) [SN00797487] | 0.0 | 
2 | O=C(NCCCN1CCN(c2ccccc2)CC1)c1noc2c1CCCCC2 [SN00788368] | 9.7 | 
3 | COc1cc(-c2c(Nc3ccccc3)oc3c2c(=O)n(C)c(=O)n3C)cc(OC)c1OC [SN00788648] | 0.0 | 
4 | Cc1sc2cc(-c3ccccc3)oc2c1C(=O)NCc1ccccc1 [SN00796296] | 20.2 | 
5 | CC1(c2nc(C3CC3)no2)CCCN(C(=O)CCC2CCCC2)C1 (stereo not shown) [SN00801392] | 3.8 | 
6 | Cc1ccc([N+](=O)[O-])cc1N1CC(=O)C(c2nc3ccccc3[nH]2)=C1N [SN00785776] | 21.1 | 
7 | NC1=Nc2nc3ccccc3n2C(c2ccc(-c3ccc(F)cc3)o2)N1 (stereo not shown) [SN00776094] | 31.0 | Average % Inhibition 24h (24 h): 0.0%; % Inhibition n=1 24h (24 h, first singlicate assay): 0.0%; % Inhibition n=2 24h (24 h, re-assessment): 0.0%; Average % Inhibition 48h (48 h): 18.4%; % Inhibition n=2 48h (48 h, re-assessment): 5.8%
8 | COc1ccc(CNC(=O)c2ccc(-c3noc(C4CCCN(C(=O)c5ccccc5)C4)n3)cc2)cc1 (stereo not shown) [SN00797402] | 14.7 | 
9 | COc1ccc(NC(=O)N2CCN(c3cc(C)nc(N4CCOCC4)n3)CC2)cc1 [SN00786878] | 44.4 | 
10 | CC(C)CN1CC(C(=O)N2CCC(Nc3cccnn3)CC2)CC1=O (stereo not shown) [SN00774466] | 0.0 | 
11 | O=C(Cc1noc(-c2ccoc2)n1)NC1CCCCC1 [SN00773041] | 3.1 | 
12 | CCC(C)(NCc1ncc(-c2cccs2)o1)c1nccs1 (stereo not shown) [SN00783193] | 26.6 | 
13 | COC(=O)C1=C(C)N(C(C)C)C(=O)C1(NC(=O)C1CCCCC1)C(F)(F)F (stereo not shown) [SN00784094] | 0.0 | 
14 | COC(=O)C(C)n1cnc2c(nnn2Cc2ccc(C)cc2)c1=O (stereo not shown) [SN00802538] | 3.2 | 
15 | Cc1nnc(-c2cc(NS(=O)(=O)c3ccc(Cl)cc3)c(C)s2)o1 [SN00798629] | 2.8 | 
16 | Cc1ccc(-c2[nH]c(-c3ccccc3)nc2S(=O)(=O)CC(=O)Nc2ccccc2)cc1 [SN00785272] | 11.7 | 
17 | O=C(C1CCCN1S(=O)(=O)c1ccc(Br)cc1)N1CCCCC1 (stereo not shown) [SN00774966] | 3.8 | 
18 | Cc1cc2n(CC(O)COc3ccccc3F)c(=O)c3ccccc3n2n1 (stereo not shown) [SN00770617] | 17.7 | 
19 | Cn1ncc2c(=O)[nH]c(CN3CCCC3Cc3ccccc3)nc21 (stereo not shown) [SN00772513] | 21.0 | 
20 | CC(=O)c1ccc(NC(=O)C2CC(=O)N=C(N3CCN(Cc4ccc5c(c4)OCO5)CC3)N2)cc1 (stereo not shown) [SN00788633] | 6.8 | 
21 | CCN(CC)S(=O)(=O)c1ccc2[nH]cc(C(=O)NCCCN3CCCC3)c(=O)c2c1 [SN00794535] | 13.0 | 
22 | COc1ccc(CNS(=O)(=O)c2ccc3onc(C(=O)N4CCCCC4)c3c2)cc1OC [SN00797555] | 0.0 | 
23 | CCCOc1ccc(CN2CCCC2c2c(C)noc2C)cc1 (stereo not shown) [SN00793908] | 16.7 | 
24 | O=C1CC(C(=O)N2CCCCC2Cn2cccn2)CN1C1CCCC1 (stereo not shown) [SN00782719] | 0.0 | 
25 | COc1cccc(CNC(=O)Cn2nc(C(=O)Nc3ccccc3)ccc2=O)c1 [SN00793567] | 4.7 | 
26 | CCCCC(=O)N1CCN(S(=O)(=O)c2c[nH]c3ncccc23)CC1 [SN00781078] | 2.4 | 

Row | Compound | % Inhibition n=1 48h (48 h, first singlicate assay) [%] | other results
27 | O=C(CN1CCC(c2nc(-c3ccc(F)cc3)no2)CC1)NCc1ccccc1 [SN00799393] | 0.0 | 
28 | COc1ccc2c(c1)CCCN(C(=O)c1nnc3ccccc3c1N)C2 [SN00773025] | 10.7 | 
29 | CC(C)(C)NS(=O)(=O)c1ccc(N2CCC(c3nnc4n3CCC4)CC2)c([N+](=O)[O-])c1 [SN00772456] | 4.6 | 
30 | Cc1sc(C(=O)N2CCCC2)c2ncnc(NCc3ccc(F)c(Cl)c3)c12 [SN00803192] | 23.9 | 
31 | O=C1COc2ccc(Cl)cc2N1Cc1nc(Cn2cnc3ccccc3c2=O)no1 [SN00789336] | 0.0 | 
32 | CCOc1ccc(S(=O)(=O)Nc2cccc(-c3ccc(OC)nn3)c2)cc1 [SN00792604] | 10.8 | 
33 | COCC(=O)N1CCc2c(c(COCc3ccc(C)cc3)nn2C)C1 [SN00796424] | 0.0 | 
34 | CCc1ccc(CNC(=O)c2cc3ccncc3n2C)cc1 [SN00798182] | 20.1 | 
35 | Cc1ccc(Nc2cc(N3CCN(S(=O)(=O)c4ccc(C)c(C)c4)CC3)nc(C)n2)cc1 [SN00786472] | 20.7 | 
36 | O=C(NCc1ccc2c(c1)CCN2C(=O)c1ccccc1)c1n[nH]c2c1CCc1ccccc1-2 [SN00793591] | 5.7 | 
37 | CC(C)(C)c1nc(CN2CCCN(C(=O)CCCNC(=O)NC3CCCCC3)CC2)no1 [SN00780682] | 11.6 | 
38 | Cc1noc(COC2CCCN(C(=O)c3nn(C)c4ccccc34)C2)n1 (stereo not shown) [SN00801154] | 0.0 | 
39 | O=C(COc1ccc(F)cc1)N1CCN(c2nc(CN3CCCC3)cs2)CC1 [SN00799511] | 1.1 | 
40 | CCc1nnsc1C(=O)N1CCCN(Cc2ccccc2F)CC1 [SN00782451] | 0.0 | 
41 | CC(=O)Nc1ccc2c(c1)CN(C(=O)C1CCCCC1)C(C(=O)N1CCCCC1)C2 (stereo not shown) [SN00798930] | 8.7 | 
42 | CSc1ccc(-c2csc(CN3CCN(C(C)=O)CC3)n2)cc1 [SN00778360] | 12.1 | 
43 | Cc1[nH]c(C)c(S(=O)(=O)N2CCCc3ccccc32)c1C(=O)N1CCCCC1 [SN00791426] | 0.0 | 
44 | Cc1ccc(COCc2nn(C)c3c2CN(C(=O)Nc2ccccc2)CC3)cc1 [SN00796435] | 0.0 | 
45 | CCn1cc(C(=O)Nc2ccccc2O)c(=O)c2cc(F)c(N3CCN(C(C)=O)CC3)cc21 [SN00802927] | 0.0 | 
46 | NC(=O)c1nn2c(C(F)(F)F)cc(-c3ccccc3)nc2c1Br [SN00783344] | 38.7 | 
47 | Cc1ccc(NC(=O)Cn2c(=O)n(Cc3ccc4c(c3)OCO4)c(=O)c3ncccc32)cc1 [SN00789565] | 0.0 | 
48 | CCCC(=O)Nc1ccc2c(c1)CN(C(=O)Cc1ccccc1C)C(C(=O)N(C)C)C2 (stereo not shown) [SN00798922] | 11.7 | 
49 | COc1cccc(CNC(=O)c2nsc(C(=O)NCc3ccccc3F)c2N)c1 [SN00797759] | 13.9 | 
50 | O=S(=O)(c1ccc(Br)cc1)c1nc(-c2ccccc2)oc1N1CCOCC1 [SN00785745] | 4.0 | 
51 | C[C@@]1(O)CCN(C(=O)c2cccc(F)c2)C[C@H]1N1CCCC1 (relative stereo) [SN00801211] | 0.0 | 
52 | O=C(Cn1cnc2c(nnn2Cc2ccc(Cl)cc2)c1=O)NC1CCCC1 [SN00802568] | 16.4 | 

Row | Compound | % Inhibition n=1 48h (48 h, first singlicate assay) [%] | other results
53 | c1cncc(-c2nc(Sc3nnnn3CC3CCCO3)c3ccccc3n2)c1 (stereo not shown) [SN00771230] | 11.8 | 
54 | CCOC(=O)c1csc(-n2nc(-c3cccc(OC(C)=O)c3)cc2C(F)(F)F)n1 [SN00789527] | 21.7 | 
55 | Cn1cc2c3c(cccc31)CN(C(=O)NC(C)(C)C)CC2 [SN00798578] | 7.2 | 
56 | Cc1nc2c(c(=O)n1CC(=O)Nc1cccc(F)c1)CCN(Cc1ccccc1)C2 [SN00795483] | 0.0 | 
57 | COc1ccc(OCC(=O)N2CCN(Cc3ccc(C)cc3)c3ncccc32)cc1 [SN00790421] | 6.7 | 
58 | Cc1noc2ncc(C(=O)N3CCN(C(C)C)CC3)cc12 [SN00779057] | 0.0 | 
59 | CC1(C(=O)NCc2ccc(F)cc2)Cn2nc(-c3ccco3)cc2C(=O)N1Cc1ccccc1 (stereo not shown) [SN00787370] | 13.6 | 
60 | CCOc1ccc(-c2nc(CSCC(=O)N3CCN(c4ccc(Cl)cc4)CC3)c(C)o2)cc1 [SN00794684] | 0.0 | 
61 | O=C1c2ccccc2C(=O)N1CC(=O)n1nc(-c2cccnc2)nc1NCc1cccs1 [SN00785806] | 3.6 | 
62 | O=S(=O)(Cc1ccc(C(F)(F)F)cc1)Cc1noc(C2CC2)n1 [SN00781153] | 0.0 | 
63 | COc1ccc(S(=O)(=O)N2CCN(Cc3ccc(C)cc3)c3ncccc32)cc1 [SN00790428] | 10.3 | 
64 | Cc1c(C)n(-c2ccccc2)c2ncnc(N3CCC(C)CC3)c12 [SN00789013] | 35.2 | 
65 | CCc1nc(CN2CCCN(C(=O)C3CCC3)CC2)cs1 [SN00777931] | 3.9 | 
66 | COCCNC(=O)N1Cc2c(C)nn(-c3ccccc3)c2-n2cccc2C1c1cccc(C)c1 (stereo not shown) [SN00785355] | 10.0 | 
67 | Cc1c(F)cccc1NC(=O)Nc1ccc2c(c1)CCN2S(C)(=O)=O [SN00796291] | 21.1 | 
68 | CCCc1noc(Cn2c(-c3ccc(OC)c(OC)c3)noc2=O)n1 [SN00781301] | 0.0 | 
69 | COc1ccc(OCCn2c(NC(=O)c3ccc(OC)cc3)nc3ccccc32)cc1 [SN00783884] | 19.5 | 
70 | CCCOc1ccc(-c2noc(Cc3nc(-c4cccc(OC)c4)cs3)n2)cc1 [SN00797723] | 4.6 | 
71 | CCn1c(=O)c(=O)n(CC(=O)NCc2ccc(SC)cc2)c2ccccc21 [SN00792977] | 16.0 | 
72 | COc1ccc(-c2ncc3c(n2)CCN(C(=O)c2ccccc2C(F)(F)F)C3)cc1 [SN00799000] | 0.0 | 
73 | COc1ccc2cc(-c3csc(Cc4nc(-c5ccccn5)no4)n3)c(=O)oc2c1 [SN00797738] | 2.5 | 
74 | Cc1ccc(-c2noc(-c3cccn4c(=O)n(CC(=O)Nc5cc(C)ccc5C)nc34)n2)cc1 [SN00798102] | 23.0 | 
75 | COCC1CN(C(=O)c2ccc(OC)cc2)CC12CCOCC2 (stereo not shown) [SN00801332] | 24.3 | 
76 | CNc1nc(C(N)=O)c(NC(=O)c2ccc(OC)cc2)s1 [SN00794269] | 25.8 | 
77 | CCNC(=O)C1CCCN1C(=O)c1cccc(NC(=O)c2ccc(Br)cc2)c1 (stereo not shown) [SN00794777] | 0.0 | 
